Test results: patent US9751870B2, “Oxytocin receptor agonists for the treatment of CNS diseases” (Hoffmann-La Roche Inc., priority 2013, dated 2017)

Target: T1, human Oxytocin (OTR) receptor (Homo sapiens, UniProt P30559)
T1 construct: expressed in transfected cells
T1 sequence (P30559 1-389): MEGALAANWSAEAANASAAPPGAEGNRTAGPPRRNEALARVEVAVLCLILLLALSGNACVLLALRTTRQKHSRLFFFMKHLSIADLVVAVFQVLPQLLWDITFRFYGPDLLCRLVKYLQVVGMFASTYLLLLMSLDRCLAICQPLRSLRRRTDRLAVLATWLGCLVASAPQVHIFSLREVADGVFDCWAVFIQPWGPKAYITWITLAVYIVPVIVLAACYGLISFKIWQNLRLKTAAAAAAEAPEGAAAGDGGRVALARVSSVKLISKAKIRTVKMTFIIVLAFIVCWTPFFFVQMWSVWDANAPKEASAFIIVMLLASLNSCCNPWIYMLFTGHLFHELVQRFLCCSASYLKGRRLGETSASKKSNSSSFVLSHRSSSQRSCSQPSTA
Test: Calcium flux assay (FLIPR), agonist mode, CHO cells expressing human OTR
Assay type: cell-based
Conditions: calcium flux in CHO cells expressing human OTR, read-out: hEC50
Text: Chinese Hamster Ovary (CHO) cells were transfected with expression plasmids encoding either the human V1a, the human Oxytocin (OTR) or the humanV2 receptor, the latter in combination with the chimeric Gqs5 G protein to redirect the signal to Calcium flux. Stable cells were cloned by limiting dilution to yield monoclonal cell lines expressing either human V1a, human V2+Gqs5 or human OTR receptors and selected based on functional responses detected on a fluorometric imaging plate reader (FLIPR) detecting Calcium flux in the cell after receptor activation. The stable cell lines were grown in F-12 K Nutrient Mixture (Kaighns Modification), containing 10% foetal bovine serum (FBS), 1% penicillin-streptomycin, 1% L-[…], 200 ug/ml Geneticin at 37° C. in a 10% CO2 incubator at 95% humidity.
Calcium Flux Assays Using Fluorescent Imaging (Fluorometric Imaging Plate Reader, FLIPR)
On the afternoon before the assay, cells were plated at a density of 50,000 cells/well into black 96 well plates with clear bottoms to allow cell inspection and fluorescence measurements from the bottom of each well. The density of cells was sufficient to yield a confluent monolayer the next day. Hanks balanced salt solution, without phenol red, containing 20 mM HEPES (pH 7.3) and 2.5 mM probenecid (assay buffer) was prepared fresh for each experiment. Compound dilutions were made using a Beckman Biomek 2000 laboratory automation workstation, in assay buffer containing 1% DMSO. The dye-loading buffer consisted of a final concentration of 2 μM Fluo-4-AM (dissolved in DMSO and pluronic acid) in assay buffer. The existing culture media was removed from the wells and 100 μl of the dye-loading buffer was added to each well and incubated for approximately 60 min at 37° C. in a 5% CO2 incubator at 95% humidity. Once dye-loaded, the cells were washed thoroughly on an Embla cell washer with the assay buffer to remove any unincorporated dye. Exactly 100 μl assay buffer was left in each well.
Each 96 well plate containing dye-loaded cells was placed into the FLIPR machine and the laser intensity set to a suitable level to detect low basal fluorescence. To test compounds as agonists, 25 μl diluted compound was added to the plate 10 seconds into the fluorescent measurements and fluorescent response was recorded for 5 minutes. The fluorescence data was normalized to the endogenous full agonist dose-response set at 100% for the maximum response and 0% for the minimum. Each agonist concentration-response curve was constructed using a four parameter logistic equation with Microsoft Excel XLFit as follows: Y=Minimum+((Maximum−Minimum)/(1+10^(LogEC50-X)nH)), where y is the % normalized fluorescence, minimum is the minimum y, maximum is the maximum y, log EC50 is the log10 concentration which produces 50% of the maximum induced fluorescence, x is the log10 of the concentration of the agonist compound and H is the slope of the curve (the Hill Coefficient). The maximum value gives the efficacy of the agonist test compound in percentage. The concentration of agonist that produced a half-maximal response is represented by the EC50 value, the logarithm of which yielded the pEC50 value.

| Compound | EC50 [nM] |
| --- | --- |
| O=S(=O)(Nc1ccnn1-c1ccccn1)c1ccc(C(F)(F)F)c(F)c1 [Example 24, 3-Fluoro-N-(2-pyridin-2-yl-2H-pyrazol-3-yl)-4-trifluoromethyl-benzenesulfonamide] | 799 |
| O=S(=O)(Nc1ccnn1-c1ccccn1)c1ccc(OC(F)F)cc1 [Example 6, 4-Difluoromethoxy-N-(2-pyridin-2-yl-2H-pyrazol-3-yl)-benzenesulfonamide] | 107 |
| Cc1csc(-n2nccc2NS(=O)(=O)c2ccc(Cl)cc2F)n1 [Example 26, 4-Chloro-2-fluoro-N-[2-(4-methyl-thiazol-2-yl)-2H-pyrazol-3-yl]-benzenesulfonamide] | 150 |
| O=S(=O)(Nc1ccnn1-c1ccccn1)c1ccc(C(F)(F)F)cc1Cl [Example 5, 2-Chloro-N-(2-pyridin-2-yl-2H-pyrazol-3-yl)-4-trifluoromethyl-benzenesulfonamide] | 91 |
| O=S(=O)(Nc1ccnn1-c1ccccn1)c1ccc(Cl)cc1Cl [Example 13, 2,4-Dichloro-N-(2-pyridin-2-yl-2H-pyrazol-3-yl)-benzenesulfonamide] | 17 |
| O=S(=O)(Nc1ccnn1-c1ccccn1)c1ccc(C(F)(F)F)cc1 [Example 2, N-(2-Pyridin-2-yl-2H-pyrazol-3-yl)-4-trifluoromethyl-benzenesulfonamide] | 8 |
| O=S(=O)(Nc1ccnn1-c1ccccn1)c1ccc(SC(F)(F)F)cc1 [Example 20, N-(2-Pyridin-2-yl-2H-pyrazol-3-yl)-4-trifluoromethylsulfanyl-benzenesulfonamide] | 47 |
| O=S(=O)(Nc1ccnn1-c1ncccn1)c1ccc(C(F)(F)F)cc1 [Example 12, N-(2-Pyrimidin-2-yl-2H-pyrazol-3-yl)-4-trifluoromethyl-benzenesulfonamide] | 1800 |
| O=S(=O)(Nc1ccnn1-c1ccccn1)c1ccc(S(=O)(=O)C(F)(F)F)cc1 [Example 23, N-(2-Pyridin-2-yl-2H-pyrazol-3-yl)-4-trifluoromethanesulfonyl-benzenesulfonamide] | 753 |
| O=S(=O)(Nc1ccnn1-c1ccnc(C(F)(F)F)n1)c1ccc(C(F)(F)F)cc1 [Example 21, 4-Trifluoromethyl-N-[2-(2-trifluoromethyl-pyrimidin-4-yl)-2H-pyrazol-3-yl]-benzenesulfonamide] | 1570 |
| O=S(=O)(Nc1ccnn1-c1ccccn1)c1ccc(C(F)(F)F)cc1F [Example 22, 2-Fluoro-N-(2-pyridin-2-yl-2H-pyrazol-3-yl)-4-trifluoromethyl-benzenesulfonamide] | 333 |

Next, values leading:

| EC50 [nM] | Compound |
| --- | --- |
| 113 | CCc1ccc(S(=O)(=O)Nc2ccnn2-c2nc(C)cs2)cc1 [Example 11, 4-Ethyl-N-[2-(4-methyl-thiazol-2-yl)-2H-pyrazol-3-yl]-benzenesulfonamide] |
| 81 | N#Cc1ccc(S(=O)(=O)Nc2ccnn2-c2ccccn2)cc1 [Example 8, 4-Cyano-N-(2-pyridin-2-yl-2H-pyrazol-3-yl)-benzenesulfonamide] |
| 17 | Cc1ccnc(-n2nccc2NS(=O)(=O)c2ccc(C(F)(F)F)cc2)c1 [Example 16, N-[2-(4-Methyl-pyridin-2-yl)-2H-pyrazol-3-yl]-4-trifluoromethyl-benzenesulfonamide] |
| 19 | O=S(=O)(Nc1ccnn1-c1ccccn1)c1ccc(Cl)cc1 [Example 1, 4-Chloro-N-(2-pyridin-2-yl-2H-pyrazol-3-yl)-benzenesulfonamide] |
| 20 | CCc1ccc(S(=O)(=O)Nc2ccnn2-c2cc(C)ccn2)cc1 [Example 18, 4-Ethyl-N-[2-(4-methyl-pyridin-2-yl)-2H-pyrazol-3-yl]-benzenesulfonamide] |
| 1570 | CCc1ccc(S(=O)(=O)Nc2ccnn2-c2nc(C3CC3)ns2)cc1 [Example 25, N-[2-(3-Cyclopropyl-[1,2,4]thiadiazol-5-yl)-2H-pyrazol-3-yl]-4-ethyl-benzenesulfonamide] |
| 34 | CCCc1ccc(S(=O)(=O)Nc2ccnn2-c2ccccn2)cc1 [Example 4, 4-Propyl-N-(2-pyridin-2-yl-2H-pyrazol-3-yl)-benzenesulfonamide] |
| 2460 | O=S(=O)(Nc1ccnn1-c1ccc(F)cc1)c1ccc(Cl)cc1 [Example 7, 4-Chloro-N-[2-(4-fluoro-phenyl)-2H-pyrazol-3-yl]-benzenesulfonamide] |
| 16 | Cc1ccnc(-n2nccc2NS(=O)(=O)c2ccc(Cl)cc2)c1 [Example 17, 4-Chloro-N-[2-(4-methyl-pyridin-2-yl)-2H-pyrazol-3-yl]-benzenesulfonamide] |
| 84 | CC(F)c1ccc(S(=O)(=O)Nc2ccnn2-c2ccccn2)cc1 (stereo not shown) [Example 15, 4-(1-Fluoro-ethyl)-N-(2-pyridin-2-yl-2H-pyrazol-3-yl)-benzenesulfonamide] |
| 520 | Cc1csc(-n2nccc2NS(=O)(=O)c2ccc(C(F)(F)F)cc2)n1 [Example 9, N-[2-(4-Methyl-thiazol-2-yl)-2H-pyrazol-3-yl]-4-trifluoromethyl-benzenesulfonamide] |
| 63 | Cc1ccnc(-n2nccc2NS(=O)(=O)c2ccc(C#N)cc2)c1 [Example 19, 4-Cyano-N-[2-(4-methyl-pyridin-2-yl)-2H-pyrazol-3-yl]-benzenesulfonamide] |
| 163 | Cc1csc(-n2nccc2NS(=O)(=O)c2ccc(Cl)cc2)n1 [Example 10, 4-Chloro-N-[2-(4-methyl-thiazol-2-yl)-2H-pyrazol-3-yl]-benzenesulfonamide] |
| 16 | CCc1ccc(S(=O)(=O)Nc2ccnn2-c2ccccn2)cc1 [Example 3, 4-Ethyl-N-(2-pyridin-2-yl-2H-pyrazol-3-yl)-benzenesulfonamide] |
